# Assay results as given in PMC12519824, “Fatal outcome of severe serotonin syndrome and acute respiratory distress syndrome after self-poisoning with paroxetine: a case report” (Journal of Medical Case Reports, 2025).
# Where two headings read alike, the source gives them in different places.
# How the values were obtained:
# [1] = N-acetylcysteine treatment after paracetamol overdose (Prescott regimen); assay type: in vivo, human; conditions: 8000 mg paracetamol (160 mg/kg) ingested; e.g. elevated transaminases
# Protocol: (§1) A person with an estimated body weight of 50 kg ingested a total amount of 3150 mg agomelatine (63 mg/kg), 4000 mg paroxetine (80 mg/kg), 8000 mg paracetamol (160 mg/kg), 5000 mg acetylsalicylic acid (100 mg/kg), 1000 mg caffeine (20 mg/kg), and 25,200 mg ibuprofen (504 mg/kg) in suicidal intent (total of 336 pills). […] The patient was reported to be on regular paroxetine therapy. However, the exact dosage and frequency of intake were unknown. […] Owing to reported paracetamol overdose, N-acetylcysteine was administered (Fig. 1) according to the regimen described by Prescott et al.. All other medication—except for paroxetine—was deemed to be no longer clinically relevant by the contacted poison information center, based on the time elapsed since ingestion. […] The patient was then transferred to our tertiary care institution for specialized ARDS treatment. […] Therefore, a symptomatic therapy with olanzapine (10 mg/day) was started. Analgosedation with sufentanil was switched to hydromorphone to prevent further aggregation of serotonin, and corticosteroids were administered in an attempt to enhance paroxetine elimination by CYP2D6 induction. […] Once vv-ECMO was initiated, CytoSorb™ hemoadsorption could easily be added in an attempt to eliminate paroxetine.
# [2] = Serum paroxetine level monitoring after self-poisoning; assay type: in vivo, human
# Description: However, the exact dosage and frequency of intake were unknown. […] As no severe life-threatening serotonin syndrome symptoms were present at that point and the patient´s condition kept improving, the decision for supportive treatment was made. […] Once vv-ECMO was initiated, CytoSorb™ hemoadsorption could easily be added in an attempt to eliminate paroxetine.
# [3] = Clinical course of paroxetine overdose in multidrug self-poisoning (case report); assay type: in vivo, human
# Protocol: as §1
# [4] = indicated value of the test laboratory; ref test laboratory; cited from earlier work
# [5] = cited from earlier work
# [6] = cited from earlier work; remark: listed apart in the source
# [7] = during serotonin syndrome attributed to paroxetine overdose
structure (smiles),measurement,setting,value
"CC(=O)N[C@@H](CS)C(=O)O [acetylcysteine, N-acetylcysteine]",development of paracetamol poisoning after treatment,[1],no clinically relevant paracetamol poisoning
Fc1ccc([C@@H]2CCNC[C@H]2COc2ccc3c(c2)OCO3)cc1 [paroxetine],time with paroxetine levels in the lethal dose range,[2]; after ingestion of 4000 mg paroxetine,20 days
same,concentration at 8 day,"[2]; human, serum, oral, day 8 after ingestion of 4000 mg paroxetine (80 mg/kg), multidrug poisoning, one patient",3410 ng/mL
same,clinical toxicity after overdose,"[3]; 4000 mg paroxetine with co-ingested drugs, person",severe serotonin syndrome complicated by acute respiratory distress syndrome
same,outcome,"[3]; 4000 mg paroxetine, despite CytoSorb, corticosteroids, olanzapine 10 mg/day and intensive care",the patient died on day 20 postingestion
same,onset of serotonin syndrome (day after ingestion),"[3]; 4000 mg paroxetine, persisted until death on day 20",5 days
same,recurrent fever,[3]; [7],up to 39.5 °C
same,tachycardia,[3]; [7],up to 142 bpm
same,hypotension,"[3]; during serotonin syndrome attributed to paroxetine overdose, printed 'hypotension up to', catecholamines needed",up to 82/52
same,critical value of paroxetine level,[4],> 120 ng/mL
same,therapeutic range of paroxetine level,[4],20 to 65 ng/mL
same,plasma protein binding,[5]; at therapeutic doses,95%
same,therapeutic half-life,[5],7 to 37 h
same,volume of distribution,[5],17 L/kg
same,prolonged half-life in poisoning,[5]; poisoning with a dose of 1 g paroxetine,220 h
same,prolonged half-life in poisoning,[5]; poisoning with a dose of 2 g paroxetine,190 h
same,complication of poisoning in a previous case report,[6]; paroxetine poisoning,severe ARDS
same,adverse event with therapeutic intake in one patient,[6]; stopped after paroxetine discontinuation,recurrent ARDS
COc1ccc(C(CN(C)C)C2(O)CCCCC2)cc1 (stereo not shown) [venlafaxine],adverse events after intentional overdose in a case report,[6],"tremors, muscle rigidity, and sustained ankle clonus, followed by ARDS"
